Results taken from US11851391B2, “Antifungal compounds and methods of forming the same” (University of Kentucky Research Foundation, priority 2018, dated 2023).
Values after ≈ are worked out from the molar mass of the structure shown. “Also recorded” adds a separate entry of the source. Read-outs that look alike come from different tables or passages of the source.

Tests used:
[1] = Solubility of the compounds; format: physicochemical
[2] = tested on: Candida albicans ATCC 10231(R) (strain A); assay: MIC determination, in vitro antifungal assay (CLSI M27-A3); format: cell-based; conditions: MIC-0 (no visible growth), 48 h at 35° C.
Protocol: (§1) The activity of N,N′-diaryl-bishydrazones 7-22 was tested against a panel of seven strains of C. albicans: ATCC 10231(R) (A), ATCC 64124(R) (B), ATCC MYA-2876(S) (C), ATCC 90819(R) (D), ATCC MYA-2310(S) (E), ATCC MYA-1237(R) (F), and ATCC MYA-1003(R) (G). The activity of these bishydrazones 7-22 was also explored against a panel of three non-albicans Candida strains: C. glabrata ATCC 2001 (H), C. krusei ATCC 6258 (I), and C. parapsilosis ATCC 22019 (J). Finally, the activity of these bishydrazones 7-22 was explored against three Aspergillus strains: A. flavus ATCC MYA-3631 (K), A. nidulans ATCC 38163 (L), and A. terreus ATCC MYA-3633 (M).
(§2) Candida albicans ATCC 10231 (A), C. albicans ATCC 64124 (B), and C. albicans ATCC MYA-2876 (C) were kindly provided by Dr. Jon Y. Takemoto (Utah State University, Logan, UT, USA). C. albicans ATCC 90819 (D), C. albicans ATCC MYA-2310 (E), C. albicans ATCC MYA-1237 (F), C. albicans ATCC MYA-1003 (G), Candida glabrata ATCC 2001 (H), Candida krusei ATCC 6258 (I), Candida parapsilosis ATCC 22019 (J), Aspergillus flavus ATCC MYA-3631 (K), and Aspergillus terreus ATCC MYA-3633 (M) were obtained from the American Type Culture Collection (ATCC; Manassas, VA, USA). Aspergillus nidulans ATCC 38163 (L) was received from Dr. Jon S. Thorson (University of Kentucky, Lexington, KY, USA). Filamentous fungi and yeasts were cultivated at 35° C. in RPMI 1640 medium (with 1-glutamine, without sodium biocarbonate, Sigma-Aldrich, St. Louis, MO) buffered to a pH of 7.0 with 0.165 M morpholinepropanesulfonic acid (MOPS) buffer (Sigma-Aldrich).
(§3) The MIC values of compounds 7a-24c against yeast cells (strains A-J) were determined in 96-well plates as described in the CLSI document M27-A3 with minor modifications. A single colony of freshly prepared yeast cells was used to inoculate 5 mL of yeast extract peptone dextrose (YPD) broth prior to incubation overnight with shaking at 200 rpm at 35° C. From the actively growing yeast culture, 100 μL were then transferred to 900 μL of sterile ddH2O and re-adjusted to achieve OD600 of 0.12 (˜1×10^6 CFU/mL). The cell suspension was further diluted to achieve 2-4×10^3 CFU/mL in RPMI 1640 medium. […] The final concentration of DMSO was ensured to be <1.25% in all experiments. The MIC values for compounds 7a-24c and CAS were defined as the minimum drug concentration that yielded complete inhibition (also known as MIC-0).

[3] = tested on: Candida parapsilosis ATCC 22019 (strain J); assay: as above; format: cell-based; conditions: strain J, MIC-0, 48 h at 35° C.
Protocol: as §1, §2, §3

[4] = tested on: C. albicans ATCC 64124(R) (strain B); assay: as above; format: cell-based, Candida albicans; conditions: strain B, MIC-0, 48 h at 35° C.
Protocol: as §1, §2, §3

[5] = tested on: C. albicans ATCC 90819(R) (strain D); assay: as above; format: cell-based, Candida albicans; conditions: Candida albicans, ATCC90819, 48 h, MIC-0, 48 h at 35° C., read-out: MIC
Protocol: as §1, §2, §3

[6] = tested on: C. albicans ATCC MYA-1237(R) (strain F); assay: as above; format: cell-based, Candida albicans; conditions: Candida albicans, 48 h, MIC-0, 48 h at 35° C., read-out: MIC
Protocol: as §1, §2, §3

[7] = tested on: C. albicans ATCC MYA-2310(S) (strain E); assay: as above; format: cell-based, Candida albicans; conditions: Candida albicans, 48 h, MIC-0, 48 h at 35° C., read-out: MIC
Protocol: as §1, §2, §3

[8] = tested on: C. albicans ATCC MYA-1003(R) (strain G); assay: as above; format: cell-based, Candida albicans; conditions: MIC-0, 48 h at 35° C.
Protocol: as §1, §2
(§4) A single colony of freshly prepared yeast cells was used to inoculate 5 mL of yeast extract peptone dextrose (YPD) broth prior to incubation overnight with shaking at 200 rpm at 35° C. From the actively growing yeast culture, 100 μL were then transferred to 900 μL of sterile ddH2O and re-adjusted to achieve OD600 of 0.12 (˜1×10^6 CFU/mL). The cell suspension was further diluted to achieve 2-4×10^3 CFU/mL in RPMI 1640 medium. […] The final concentration of DMSO was ensured to be <1.25% in all experiments.

[9] = tested on: C. albicans ATCC MYA-2876(S) (strain C); assay: as above; format: cell-based, Candida albicans; conditions: Candida albicans, 48 h, MIC-0, 48 h at 35° C., read-out: MIC
Protocol: as §1, §2, §4

[10] = tested on: Candida glabrata ATCC 2001 (strain H); assay: as above; format: cell-based; conditions: Nakaseomyces glabratus, ATCC2001, 48 h, MIC-0, 48 h at 35° C., read-out: MIC
Protocol: as §1, §2, §4

[11] = tested on: Candida krusei ATCC 6258 (strain I); assay: as above; format: cell-based; conditions: Pichia kudriavzevii, ATCC6258, 48 h, MIC-0, 48 h at 35° C., read-out: MIC
Protocol: as §1, §2, §4

[12] = tested on: Aspergillus flavus ATCC MYA-3631 (strain K); assay: MIC determination against filamentous fungi (CLSI M38-A2); format: cell-based; conditions: Aspergillus flavus, 48 h, MIC-0, 48 h at 35° C., read-out: MIC
Protocol: as §1, §2
(§5) Similarly, the MIC values of compounds 7a-24c, as well as that of the two control drugs against filamentous fungi (strains K-M) were determined as previously described in CLSI document M38-A2. Spores were harvested from sporulating cultures growing on potato dextrose agar (PDA) by filtration through sterile glass wool and enumerated by using a hemocytometer to obtain the desired inoculum size. […] Spore suspensions were added to the wells to afford a final concentration of 5×10^5 CFU/mL. The plates were incubated at 35° C. for 48 h. The MIC values of compounds 7a-24c and CAS against filamentous fungi were based on the complete inhibition of growth when compared to the growth control (MIC-0). […] Each test was performed in triplicate.

[13] = tested on: Aspergillus nidulans ATCC 38163 (strain L); assay: as above; format: cell-based; conditions: Aspergillus nidulans, ATCC38163, 48 h, MIC-0, 48 h at 35° C., read-out: MIC
Protocol: as §1, §2, §5

[14] = tested on: Aspergillus terreus ATCC MYA-3633 (strain M); assay: as above; format: cell-based; conditions: Aspergillus terreus, 48 h, MIC-0, 48 h at 35° C., read-out: MIC
Protocol: as §1, §2, §5

[15] = tested on: various yeast strains and filamentous fungi (strains A-M); assay: Antifungal activity over the whole panel (summary of MIC data); format: cell-based, Candida and Aspergillus strains; conditions: for antifungal activity (in words): over the fungal strains tested, based on MIC data of Table 1; for MIC: against all fungal strains tested, with named exceptions, read-out: antifungal activity class based on MIC values
Protocol: as §1, §3, §5

[16] = Candida albicans, ATCC10231, 48 h, read-out: MIC
[17] = Lodderomyces parapsilosis, ATCC22019, 48 h, read-out: MIC
[18] = Candida albicans, ATCC64124, 48 h, read-out: MIC
[19] = Candida albicans, 48 h, read-out: MIC

MIC [2, 16] [µg/mL]	MIC [2] [µg/mL]	MIC [3, 17] [µg/mL]	MIC [4, 18] [µg/mL]	MIC [4] [µg/mL]	MIC [5] [µg/mL]	MIC [6] [µg/mL]	MIC [7] [µg/mL]	MIC [8, 19] [µg/mL]	MIC [9] [µg/mL]	MIC [10] [µg/mL]	MIC [11] [µg/mL]	MIC [12] [µg/mL]	MIC [13] [µg/mL]	MIC [14] [µg/mL]	MIC [15] [µg/mL]	MIC [3] [µg/mL]	MIC [8] [µg/mL]	Structure (SMILES)	solubility (in words) [1]	antifungal activity (in words) [15]
																		O=[N+]([O-])c1ccccc1N/N=C/c1ccc(-c2ccc(/C=N/Nc3ccccc3[N+](=O)[O-])cc2)cc1 [Compound 8b]	limited solubility; also recorded: insoluble	
																		COc1ccccc1N/N=C/c1ccc(-c2ccc(/C=N/Nc3ccccc3OC)cc2)cc1 [Compound 9b]	limited solubility; also recorded: insoluble	
3.9 (≈ 8.43 µM)	3.9 (≈ 8.43 µM)	> 31.3	15.6 (≈ 33.7 µM)	15.6 (≈ 33.7 µM)	> 31.3	31.3 (≈ 67.7 µM)	> 31.3	31.3 (≈ 67.7 µM)	31.3 (≈ 67.7 µM)	> 31.3	> 31.3	> 31.3	> 31.3	> 31.3				Fc1cc(F)cc(N/N=C/c2ccc(-c3cccc(/C=N/Nc4cc(F)cc(F)c4)c3)cc2)c1 [Compound 22a]		no activity
> 31.3		> 31.3	> 31.3		> 31.3	> 31.3	> 31.3	31.3 (≈ 71.1 µM)	> 31.3	> 31.3	> 31.3	> 31.3	> 31.3	31.3 (≈ 71.1 µM)				N#Cc1ccc(N/N=C/c2ccc(-c3ccc(/C=N/Nc4ccc(C#N)cc4)cc3)cc2)cc1 [Compound 13b]		inactive
7.8 (≈ 16.9 µM)	7.8 (≈ 16.9 µM)	> 31.3	> 31.3		31.3 (≈ 67.7 µM)	> 31.3	> 31.3	> 31.3	> 31.3	> 31.3	> 31.3	> 31.3	> 31.3	> 31.3	≥ 31.3			Fc1ccc(N/N=C/c2ccc(-c3ccc(/C=N/Nc4ccc(F)cc4F)cc3)cc2)c(F)c1 [Compound 20b]		
																		O=[N+]([O-])c1ccccc1N/N=C/c1ccc(-c2cccc(/C=N/Nc3ccccc3[N+](=O)[O-])c2)cc1 [Compound 8a]	limited solubility; also recorded: insoluble	
7.8 (≈ 17 µM)		1.95 to 3.9 (≈ 4.24 to 8.49 µM)	7.8 (≈ 17 µM)		15.6 (≈ 34 µM)	15.6 (≈ 34 µM)	31.3 (≈ 68.1 µM)	1.95 to 3.9 (≈ 4.24 to 8.49 µM)	15.6 (≈ 34 µM)	15.6 (≈ 34 µM)	31.3 (≈ 68.1 µM)	> 31.3	> 31.3	> 31.3		3.9 (≈ 8.49 µM)	3.9 (≈ 8.49 µM)	Clc1ccc(N/N=C/c2ccc(-c3cccc(/C=N/Nc4ccc(Cl)cc4)c3)cc2)cc1 [Compound 18a]		overall antifungal activity against all the strains tested; also recorded: good activity against the majority of the fungal strains tested; also recorded: excellent activity only against yeast strains
																		COc1cccc(N/N=C/c2ccc(-c3ccc(/C=N/Nc4cccc(OC)c4)cc3)cc2)c1 [Compound 11b]	limited solubility; also recorded: insoluble	
																		COc1ccccc1N/N=C/c1ccc(-c2cccc(/C=N/Nc3ccccc3OC)c2)cc1 [Compound 9a]	limited solubility; also recorded: insoluble	
																		COc1cccc(N/N=C/c2ccc(-c3cccc(/C=N/Nc4cccc(OC)c4)c3)cc2)c1 [Compound 11a]	limited solubility; also recorded: insoluble	
15.6 (≈ 32.6 µM)	15.6 (≈ 32.6 µM)	31.3 (≈ 65.4 µM)	> 31.3		> 31.3	> 31.3	> 31.3	31.3 (≈ 65.4 µM)	> 31.3	> 31.3	31.3 (≈ 65.4 µM)	> 31.3	> 31.3	> 31.3	≥ 31.3			COc1ccccc1N/N=C(\C)c1ccc(-c2ccc(/C(C)=N/Nc3ccccc3OC)cc2)cc1 [Compound 9c]		
> 31.3		> 31.3	> 31.3		> 31.3	> 31.3	> 31.3	> 31.3	> 31.3	> 31.3	> 31.3	> 31.3	> 31.3	> 31.3				CC(C)Oc1ccc(N/N=C/c2ccc(-c3ccc(/C=N/Nc4ccc(OC(C)C)cc4)cc3)cc2)cc1 [Compound 16b]		inactive
																		FC(F)(F)c1ccc(N/N=C/c2ccc(-c3cccc(/C=N/Nc4ccc(C(F)(F)F)cc4)c3)cc2)cc1 [Compound 14a]	limited solubility; also recorded: insoluble	
